# Test results: patent publication US10945685B2, “System and method for normalizing standardized uptake values in brain positron emission tomography (PET) images” (New York University, priority 2018, dated 2021)
# Assays:
# [1] = target: T1, Monoamine oxidase B (MAO-B) (Homo sapiens, UniProt P27338); assay: MAO-B off-target binding of tau PET tracer; assay type: in vivo; conditions: SUVP data, Example I
# T1 construct: from tissue; host or cells: brain of living AD patients and normal control subjects (in vivo PET)
# T1 sequence (P27338 1-520): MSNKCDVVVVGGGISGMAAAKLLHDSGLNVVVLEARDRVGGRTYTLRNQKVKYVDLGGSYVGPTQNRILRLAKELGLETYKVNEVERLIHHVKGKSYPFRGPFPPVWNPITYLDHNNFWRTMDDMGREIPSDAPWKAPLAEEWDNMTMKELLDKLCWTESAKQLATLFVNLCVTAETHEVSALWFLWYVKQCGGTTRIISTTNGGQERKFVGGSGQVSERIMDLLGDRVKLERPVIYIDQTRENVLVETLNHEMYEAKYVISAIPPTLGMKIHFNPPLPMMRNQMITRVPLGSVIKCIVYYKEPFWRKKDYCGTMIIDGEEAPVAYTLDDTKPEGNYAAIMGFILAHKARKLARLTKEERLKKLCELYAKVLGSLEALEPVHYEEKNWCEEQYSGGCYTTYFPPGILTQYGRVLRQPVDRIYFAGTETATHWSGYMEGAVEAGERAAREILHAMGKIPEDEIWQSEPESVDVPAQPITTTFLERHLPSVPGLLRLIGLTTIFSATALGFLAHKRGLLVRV
# [2] = target: T1, Monoamine oxidase B (MAO-B); conditions: recent data, background; cited from earlier work
# tau = assay: Example II: global and regional tau binding by SUVR, PERSI and SUVP, 42 NL and 22 AD; assay type: in vivo, human; conditions: with SUVR, 64 subjects
# Text: Example II, as discussed below, provides an exemplary embodiment comparing tau PET uptake quantification methods based on a 18F-AV-1451 tracer. Quantitative measurement of tau bindings from PET tracers (such as AV1451) is crucial in the PET-based study of tauopathies (such as Alzheimer's). The standardized uptake value ratio (SUVR) method has been challenged by the off-target binding in reference region. An unbiased tau binding quantification may be achieved via several different methods, including the Parametric Estimate of Reference Signal Intensity (PERSI) method by Avid Radiopharmaceutical and standardized uptake value peak-alignment (SUVP) method. In Example II, we compared the sensitivity of SUVR, PERSI and SUVP methods on the same PET dataset, in both global and local regions.
# Using SUVR, PERSI, and SUVP, we evaluated the global and regional tau binding of 18F-AV-1451 on 64 subjects, with 42 cognitively normal (NL) and 22 Alzheimer's disease (AD), and compared the group differences of tau binding under the three different methods. Cerebral cortex was used as ROI for global binding test. The average SUVP value in ROIs is computed by averaging all positive SUVP values (SUVP>0) within the ROI, and positive binding percentage (PBP) for SUVP is defined as the ratio of voxel number with SUVP>1.5 over the total voxel number within the ROI.
# [3] = target: T2, Monoamine oxidase A (MAO-A) (Homo sapiens, UniProt P21397); conditions: recent data, background; cited from earlier work
# T2 sequence (P21397 1-527): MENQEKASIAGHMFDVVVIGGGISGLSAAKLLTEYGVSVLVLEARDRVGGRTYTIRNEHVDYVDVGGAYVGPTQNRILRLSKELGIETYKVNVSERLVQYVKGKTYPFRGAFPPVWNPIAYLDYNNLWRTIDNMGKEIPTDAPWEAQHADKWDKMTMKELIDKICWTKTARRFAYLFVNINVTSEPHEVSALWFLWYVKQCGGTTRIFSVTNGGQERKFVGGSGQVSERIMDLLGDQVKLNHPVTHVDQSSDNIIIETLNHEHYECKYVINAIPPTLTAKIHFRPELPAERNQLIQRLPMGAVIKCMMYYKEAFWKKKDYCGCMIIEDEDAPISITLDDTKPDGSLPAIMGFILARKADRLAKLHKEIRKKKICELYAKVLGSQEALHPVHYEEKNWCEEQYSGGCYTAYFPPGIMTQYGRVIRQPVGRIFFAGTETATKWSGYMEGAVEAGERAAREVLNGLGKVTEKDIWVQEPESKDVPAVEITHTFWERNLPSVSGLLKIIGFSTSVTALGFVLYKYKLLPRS
"tau binding, AD subjects versus cognitively normal NL subjects (tau)",Structure (SMILES),MAO-B off-target binding [1],MAO-B binding [2],MAO-A binding [3]
–,CNc1ccc(-c2ccc3cc(OC[C@H](O)CF)ccc3n2)cn1 [THK5351],MAO-B off-target binding in THK5351 was observed,widespread Monoamine oxidase B (MAO-B) binding,–
significantly higher tau binding,[18F]c1ccc(-c2ccc3c(c2)[nH]c2ccncc23)cn1 [AV-1451],–,–,some Monoamine oxidase A (MAO-A) binding
